The record followed here is PubChem BioAssay AID1996.

Structures are written as SMILES. In brackets after ≈: the same amount, converted by molar mass.

The conditions of the data set: buffer; pH 7.4; 200.0 µM.
One may read the solubility (kinetic) as solubility judged after dilution from a stock solution rather than from solid. Regarding `CC(=O)NCCNC(=O)c1ccc(-n2c(C)ccc2C)cc1`, the kinetic solubility stood at 35.3 µg/mL (≈ 118 µM). `CCc1ccc(NC(=O)C(C)OC(=O)/C=C/c2ccc(O)c(OC)c2)cc1` (configuration not stated) had a solubility (kinetic) of 4.1 µg/mL (≈ 11.1 µM). Compared with the last compound, the solubility kinetic is about 8.6-fold lower. The value for `CCOC(=O)C1CCN(C(=O)c2cccnc2Oc2ccccc2)CC1` was 50.9 µg/mL (≈ 144 µM). The value for `S=C(NCCc1ccccn1)Nc1cc(Cl)cc(Cl)c1` was 19 µg/mL (≈ 58.2 µM); that for `COc1ccc(/C=C/C(=O)OCC(=O)N2CCCCCC2)cc1OC` was 37.7 µg/mL (≈ 109 µM); that for `COc1cccc(C2Nc3ccccc3C(=O)N2Cc2ccccc2)c1` (configuration not stated) was 17.3 µg/mL (≈ 50.2 µM). `CCOC(=O)c1sc(NC(=O)c2ccoc2C)c(C(N)=O)c1C`: the solubility (kinetic) was found to be 7.3 µg/mL (≈ 21.7 µM).

For the compound `O=Nc1[nH]c(=O)c(/C=C(\O)c2ccccc2)nc1NO`, the solubility (kinetic) is 33.8 µg/mL (≈ 123 µM). The value for `Cc1ccccc1OCC(=O)NCCNC(=O)c1ccccn1` was more than 47 µg/mL; that for `COc1ccc2c([N+](=O)[O-])c(N3CCCC3)[nH]c2c1` was 37.7 µg/mL (≈ 144 µM); that for `COc1cc(C=O)ccc1OCC(=O)Nc1ccc2c(c1)OCO2` was 7.6 µg/mL (≈ 23.1 µM). For the compound `O=C(N/C(=C/c1cccc([N+](=O)[O-])c1)C(=O)N1CCCC1)c1ccccc1`, the kinetic solubility was determined as 51.9 µg/mL (≈ 142 µM). Take `Cc1nc(NC(=O)COC(=O)CNC(=O)c2ccco2)c(Cl)cc1Cl`: the solubility (kinetic) is more than 57.9 µg/mL. The value for `COc1nccnc1NS(=O)(=O)c1ccc(N)cc1` was more than 42 µg/mL. The value for `Cc1cc(C)c(OCCN2CCCC2)c(Cl)c1` was 27.8 µg/mL (≈ 110 µM); that for `CCCn1c(SCC(=O)N(C)C2CCS(=O)(=O)C2)nc2sc3c(c2c1=O)CCC3` (configuration not stated) was more than 68.3 µg/mL. The value for `N#Cc1c(C(F)(F)F)cc(=O)n2c1[nH]c1ccccc12` was more than 41.6 µg/mL; that for `Cc1nccn1CCOc1ccc(Cl)cc1.O=C(O)C(=O)O` was 45 µg/mL.

Turning to `Cc1ccc(NC(=O)CCN2C(=O)c3ccccc3C2=O)c(C)c1`, the kinetic solubility was 4.9 µg/mL (≈ 15.2 µM). Compared with the last compound, the solubility kinetic is about 9.2-fold lower.

The compound `Cc1ccc2c(c1)/C(=C/c1ccccc1F)C(=O)N2` came in with a solubility (kinetic) of 1.3 µg/mL (≈ 5.13 µM).

`CC1(C2CC2)NC(=O)N(CC(=O)Nc2ccc(SC(F)F)cc2)C1=O` (configuration not stated) returned a solubility (kinetic) of more than 55.4 µg/mL. The value for `CC1CCCN(CC(O)COc2ccc(-c3ccccc3)cc2)C1` (configuration not stated) was 44.4 µg/mL (≈ 136 µM); that for `Cc1cccc2[nH]c(CN(C)Cc3nc(CC4CC4)no3)nc12` was 45.9 µg/mL (≈ 147 µM); that for `NC(=O)c1c(NC(=O)c2ccccc2Cl)sc2c1CCC2` was 0.7 µg/mL (≈ 2.18 µM).

Consider `O=c1[nH]c(/C=C/c2cccc([N+](=O)[O-])c2)c([N+](=O)[O-])c(=O)[nH]1`, for which the solubility (kinetic) came to 34.8 µg/mL (≈ 114 µM). Take `O=C(c1ccccc1Cl)N1CCC(n2cccc2)CC1`: the kinetic solubility was found to be 42.2 µg/mL (≈ 146 µM).

Take `CC1(C)C2CCC1(C)C([NH2+]c1ccccc1)C2.[Cl-]` (configuration not stated): the kinetic solubility was less than 0.6 µg/mL. Turning to `Brc1cccc(CN2CCN(c3ncccn3)CC2)c1`, the kinetic solubility is 25.2 µg/mL (≈ 75.6 µM).

Turning to `Cc1ccc(NC(=O)CN2CCOCC2)cc1C`, the solubility (kinetic) was 35.1 µg/mL (≈ 141 µM). `Cn1cnc(S(=O)(=O)Nc2cc(-c3ccc(Cl)cc3)nn2C)c1` had a kinetic solubility of more than 52.8 µg/mL. The value for `CN1C2CCC1CC(NC(=O)c1ccc([N+](=O)[O-])cc1)C2` (configuration not stated) was more than 43.4 µg/mL; that for `Cc1ccc(S(=O)(=O)N2CCCCC2)cc1NC(=O)CN1C(=O)c2ccccc2S1(=O)=O` was 20.7 µg/mL (≈ 43.3 µM); that for `CCOC(=O)CNc1nc(Cl)nc(NC(C)(C)C)n1` was more than 43.2 µg/mL.

The compound `C=C(C)CN(CC)Cc1c(C(=O)N(C)CCCC)nc2ccccn12` yielded a solubility (kinetic) of more than 51.4 µg/mL. The value for `N=C1C(c2nc3ccccc3s2)=C(O)CN1C1CCC(O)CC1` (configuration not stated) was 5.1 µg/mL (≈ 15.5 µM); that for `CC1CCCN(c2c3c(nc4ccccc24)CCCC3)C1` (configuration not stated) was 0.6 µg/mL (≈ 2.14 µM).

The compound `Cc1cccc(CC(=O)NC2CCN(C)CC2)c1` yielded a kinetic solubility of more than 37 µg/mL. In turn, `COc1cc(OC)c(C(=O)Nc2ccc(C(=O)c3ccccc3)cc2)cc1OC` displayed a kinetic solubility of 3.4 µg/mL (≈ 8.69 µM). `COc1cccc(C(O)c2nc3ccccc3n2C(C)C)c1OC` (configuration not stated) gave a solubility (kinetic) of more than 49 µg/mL. The value for `C=C(C)c1cccc(C(C)(C)NC(=O)Nc2ccc(OC)nc2)c1` was 14 µg/mL (≈ 43 µM). The compound `O=C(NC1CCN(Cc2ccccc2Cl)CC1)c1ccccc1` registered a kinetic solubility of 47.6 µg/mL (≈ 145 µM). This solubility kinetic lies about 3.4-fold higher than the previous one. Compound `Cc1c(C(=O)N2CCC[C@H]2CO)oc2c(F)cccc12` gave a solubility (kinetic) of 37 µg/mL (≈ 133 µM). `CC(C)NC(=O)CCCn1cc([N+](=O)[O-])cn1` gave a kinetic solubility of more than 36 µg/mL. The value for `CCCCC(=O)N(CCOC)c1nnc(-c2cccnc2)s1` was more than 48.1 µg/mL; that for `Cc1[nH]c2ccccc2c1C(=O)COC(=O)c1nccnc1N` was 6.9 µg/mL (≈ 22.2 µM); that for `COc1ccc(NC(=O)CS(=O)(=O)c2ccc(C)cc2)c(OC)c1` was more than 52.4 µg/mL. The value for `NC(=S)Nc1cc(Cl)ccc1Cl` was 30.2 µg/mL (≈ 137 µM). As for `Cc1cnc([N+](=O)[O-])n1CCOC(=O)NC(=O)c1ccc(F)cc1`, the solubility (kinetic) was more than 50.4 µg/mL. In the case of `CCOC(=O)c1c(C)[nH]c(C)c1C(=O)COC(=O)/C=C/c1ccccc1[N+](=O)[O-]`, the solubility (kinetic) stood at 6 µg/mL (≈ 15 µM). On to `CCOc1ncccc1C(=O)Nc1ccc(F)c(Cl)c1`, for which the solubility (kinetic) stood at 1 µg/mL (≈ 3.39 µM). The value for `COc1ccccc1CNC(=O)c1nccnc1CO` was more than 41 µg/mL; that for `COc1ccccc1CNC(=O)CCCc1cn(C)c2ccccc12` was 8.2 µg/mL (≈ 24.4 µM).

For the compound `COC(=O)c1c(C)[nH]c(C(=O)/C=C/c2ccc(C)cc2)c1C`, the solubility (kinetic) was 1.7 µg/mL (≈ 5.72 µM). `CCCn1c(NC(=O)c2ccc([N+](=O)[O-])o2)nc2ccccc21` showed a solubility (kinetic) of 10.4 µg/mL (≈ 33.1 µM). The value for `Cc1ccc(S(=O)(=O)N2CCCCC2)cc1NC(=O)CCNC(=O)c1ccccc1` was 9.4 µg/mL (≈ 21.9 µM); that for `CN(Cc1ccccc1)c1ccc(N2C(=O)CCC2=O)cc1[N+](=O)[O-]` was 38.7 µg/mL (≈ 114 µM); that for `CCOC(=O)c1c(C)c2c(=O)[nH]cnc2n1-c1ccccc1` was 2.2 µg/mL (≈ 7.4 µM). The value for `COc1cccc(Oc2nc(-c3ccccc3O)nc3ccccc23)c1` was less than 0.4 µg/mL; that for `Cc1ccc(N2C(=O)C(CN3CCCCC3)C2c2ccccc2)cc1` (configuration not stated) was 27 µg/mL (≈ 80.7 µM). As for `CN(C)NC(=O)c1csnc1-c1c(Cl)cccc1Cl`, the kinetic solubility is more than 47.4 µg/mL. The value for `Fc1ccc(N=c2ssnc2Cl)c(F)c1` was 7.5 µg/mL (≈ 28.3 µM).

Compound `Cc1ccc2c(CN3CCCCC3C)cc(=O)oc2c1C.Cl` (configuration not stated) came in with a solubility (kinetic) of 20.9 µg/mL. Against the preceding compound, the solubility kinetic is about 2.8-fold higher. The value for `Cc1ccc(NC(=S)N2CCC(c3ccccc3)C2)c(Cl)c1` (configuration not stated) was 7.1 µg/mL (≈ 21.5 µM); that for `Nc1nonc1OCCN1CCN(c2ccc([N+](=O)[O-])c3cccnc23)CC1` was 9.1 µg/mL (≈ 23.6 µM); that for `CCOC(=O)CSc1[nH]c2cc(OC)ccc2c1[N+](=O)[O-]` was 29.3 µg/mL (≈ 94.4 µM). In the case of `O=C(Nc1ccc(F)cc1)c1ccc(S(=O)(=O)N2CCCC2)cc1`, the kinetic solubility turned out to be 4.4 µg/mL (≈ 12.6 µM).

Compound `Cc1sc2nc(-c3cccs3)oc(=O)c2c1C` came in with a solubility (kinetic) of less than 0.6 µg/mL.

`COc1ccc(-c2nc(C#N)c(N3CCCCC3)o2)cc1` gave a solubility (kinetic) of 0.3 µg/mL (≈ 1.06 µM). Take `CN1CCN(C(=S)C(=O)Nc2ccccc2)CC1`: the kinetic solubility came to 38.2 µg/mL (≈ 145 µM). Compared with the last compound, the solubility kinetic is about 130-fold higher. The compound `O=C(COC(=O)c1ccc(F)cc1)Nc1ccc(Cl)cn1` returned a kinetic solubility of 0.8 µg/mL (≈ 2.59 µM). For `COc1ccc(C(=O)NCc2c(C)oc(C)c2C(=O)O)cc1`, the solubility (kinetic) is more than 45.5 µg/mL. The value for `COc1ccc(NC(=O)CC(C)CC(=O)NCc2ccccc2)c(OC)c1` (configuration not stated) was 5 µg/mL (≈ 13.5 µM).
